The results in this text go back to the OPERA property sets (Mansouri et al. 2018).

Details in the first data set: not given
On to `C1CCCCC1`, for which the boiling point is 80.7 °C, the log10 Henry constant (atm·m³/mol) is -0.824, the log10 Koa was found to be 2.74 and the log10 biodegradation half-life (days) is 1.7. For the same molecule, the log10 vapour pressure (mmHg) was 1.99, the melting point was determined as 6.6 °C and the ready biodegradability entry is “not readily biodegradable”.
In the case of `NCCS`, the melting point worked out at 98 °C.
Consider `OCC1O[C@@H](Oc2ccccc2)[C@H](O)[C@@H](O)[C@H]1O` (stereo partly specified), for which the melting point was determined as 166 °C.
On to `CCCCCCCCOCCCCCCCC`, for which the boiling point amounted to 283 °C, the melting point is -7.6 °C and the ready biodegradability result was “readily biodegradable”.
`N#Cc1cc([N+](=O)[O-])ccc1N`: the ready biodegradability result is “not readily biodegradable”.
On to `Clc1cc2c(Cl)cccc2c(Cl)c1Cl`, for which the log10 Koa was 8.29, the log10 vapour pressure (mmHg) was -4.96 and the melting point is 141 °C.
Molecule `COC(=O)c1ccc(I)cc1` yielded a melting point of 115 °C.
`CCOC(=O)C(C)C(C)=O` (stereo unspecified) came in with a boiling point of 187 °C.
In the case of `O=C(O)CCCc1c[nH]c2ccccc12`, the melting point was 124 °C.
Take `c1ccc2c3c(ccc2c1)-c1cccc2cccc-3c12`: the log10 biodegradation half-life (days) stood at 2.48 and the melting point was 166 °C.
`O=c1cc[nH]c(=O)[nH]1`: the log10 vapour pressure (mmHg) is -4.33 and the melting point came out at 338 °C.
For `Cc1cccc[n+]1[O-]`, the melting point is 49 °C.
As to `CC(C)CCI`, the boiling point worked out at 147 °C.
On to `CCCOc1ccc(C(=O)O)cc1`, for which the melting point was determined as 145 °C.
`CN(C)CC#N`: the boiling point is 138 °C.
The molecule `COc1ccc(C=O)c(OC)c1` showed a boiling point of 290 °C and a melting point of 72 °C.
Take `Oc1ccc(Cl)cc1Cl`: the boiling point was 210 °C, the log10 Koc (L/kg) turned out to be 2.81, the log10 vapour pressure (mmHg) is -1.05 and the melting point came out at 45 °C. For the same molecule, the ready biodegradability entry is recorded as “not readily biodegradable”.
The molecule `C=CC1(C(C)CCC)C(=O)NC(=O)NC1=O` (stereo unspecified) registered a melting point of 91 °C.
`CCOC(=O)c1c[nH]c(=S)[nH]c1=O` gave a melting point of 252 °C.
`Oc1c(Cl)cc(Cl)c(Cl)c1Cl`: the log10 Koc (L/kg) came to 3.35, the log10 vapour pressure (mmHg) is -3.18, the melting point amounted to 70 °C and the ready biodegradability result is given as “not readily biodegradable”.
With `CCCCCCCC/C=C\CCCCCCCC(=O)OCC`, the melting point is -13.1 °C.
The molecule `CC(=O)Oc1ccc(C(c2ccc(OC(C)=O)cc2)c2ccccn2)cc1` displayed a melting point of 134 °C.
Molecule `CCCCCCCCCCC/C=C\CCCCC(=O)O` came in with a melting point of 29.8 °C.
Same read-out and setting: the result for `O=C1c2ccccc2C(=O)c2c(NCCO)ccc(NCCO)c21` reads 248 °C.
With `NC(N)=S`, the log10 Koc (L/kg) was 0.85, the log10 vapour pressure (mmHg) is -2.55 and the melting point came to 182 °C.
Molecule `C=CCNCC=C` came in with a boiling point of 111 °C, a log10 vapour pressure (mmHg) of 1.31 and a melting point of -88.4 °C.
`CCCCCCCOC(=O)CCCCC`: the boiling point was 261 °C and the melting point was -34.4 °C.
Take `COc1ccccc1N(C)C`: the boiling point is 210 °C.
As to `c1nnn[nH]1`, the melting point worked out at 157 °C.
Regarding `OC[C@H]1OC(O)[C@H](O)[C@@H](O)[C@@H]1O` (stereo partly specified), the melting point is 133 °C.
For `CC=CC=CC=CC=O`, the melting point came out at 56.8 °C.
As for `O=C(O)c1ccc2c(c1)C(=O)OC2=O`, the boiling point worked out at 390 °C, the log10 vapour pressure (mmHg) is -5.01, the melting point is 162 °C and the ready biodegradability result is “readily biodegradable”.
`CCCCCCCCCS` had a boiling point of 220 °C, a log10 vapour pressure (mmHg) of -0.881 and a melting point of -20.1 °C.
In turn, `O=S(=O)(F)Cc1ccccc1` gave a melting point of 93 °C.
As for `O=C(Oc1cccc2cccnc12)c1ccccc1`, the melting point worked out at 119 °C and the ready biodegradability entry was “readily biodegradable”.
On to `Oc1c(I)cc(I)c2cccnc12`, for which the melting point was 210 °C.
As to `COC(=O)Nc1nc2ccccc2[nH]1`, the log10 Koc (L/kg) is 2.35, the log10 vapour pressure (mmHg) was -9.12 and the ready biodegradability entry is reported as “not readily biodegradable”.
The molecule `Brc1nccs1` returned a boiling point of 171 °C.
As for `CCC(COCCOc1c(I)cc(I)c(NC(C)=O)c1I)C(=O)O` (stereo unspecified), the melting point worked out at 130 °C.
With `CCCCCc1cc(O)c2c(c1)OC(C)(C)c1ccc(C)cc1-2`, the melting point was found to be 77 °C and the ready biodegradability entry was “readily biodegradable”.
`CCC(=O)O[C@](Cc1ccccc1)(c1ccccc1)[C@H](C)CN(C)C`: the melting point was 75.5 °C.
As for `NS(=O)(=O)c1ccc(N2CCCCS2(=O)=O)cc1`, the melting point stood at 181 °C.
For the molecule `CCCCCCCCCCCCCCCc1cccc(O)c1`, the melting point stood at 53.5 °C and the ready biodegradability entry is recorded as “readily biodegradable”.
With `CC(=O)OC1CCC2(C)C(CCC3(C)C2C(=O)C=C2C4CC(C)(C(=O)O)CCC4(C)CCC23C)C1(C)C` (stereo unspecified), the melting point amounted to 323 °C.
Molecule `CCCCCC(=O)c1ccccc1` came in with a boiling point of 265 °C and a melting point of 27 °C.
In turn, `CC(O)C(C)O[N+](=O)[O-]` (stereo unspecified) came in with a log10 Henry constant (atm·m³/mol) of -7.
`Cc1cccc(CCl)c1` came in with a boiling point of 196 °C.
`CC1CN(C2CCCCCCCCCCC2)CC(C)O1` (stereo unspecified): the log10 vapour pressure (mmHg) is -5.44 and the melting point worked out at 71 °C.

The data set is the same for the next values; noted with them: fish.
Consider `CCN(CC)c1ccccc1`, for which the log10 BCF came out at 2.01.
On to `Nc1ccccc1`, for which the log10 BCF was 0.21 and the log10 biotransformation half-life (days) was -0.78.
`Clc1cc2c(cc1Cl)Oc1ccccc1O2` gave a log10 biotransformation half-life (days) of 0.33.
In turn, `CC(C)(c1ccc(O)cc1)c1ccc(O)cc1` had a log10 BCF of 1.64 and a log10 biotransformation half-life (days) of 0.27.
Consider `C1CCCCC1`, for which the log10 BCF was 1.92 and the log10 biotransformation half-life (days) is -0.66.
Consider `CCOP(=S)(OCC)ON=C(C#N)c1ccccc1`, for which the log10 biotransformation half-life (days) was found to be 0.84.
`Oc1ccc(Cl)cc1Cl` registered a log10 BCF of 1.53 and a log10 biotransformation half-life (days) of -0.94.
Molecule `ClC(Cl)=C(Cl)c1c(Cl)c(Cl)c(Cl)c(Cl)c1Cl` returned a log10 BCF of 3.91 and a log10 biotransformation half-life (days) of 2.04.
`Oc1c(Cl)cc(Cl)c(Cl)c1Cl` had a log10 BCF of 2.3.
For the molecule `NC(N)=S`, the log10 BCF is 0.3.
The molecule `COC(=O)Nc1nc2ccccc2[nH]1` gave a log10 BCF of 0.4.
